Laboratory results reported in article PMC7794297.
“And” between values parts separate entries of the source, which are not always exact repeats. Equal entries are not always repeated. Where two headings read alike, the source gives them in different places.

Experiments:
[1] = target: T1, glucose oxidase (GOx) (Aspergillus niger, UniProt P13006)
[2] = for Kobs: 190 μM 3, Tris pH 7.8, 6 °C
[3] = target: bovine serum albumin (BSA) (Bos taurus, UniProt P02769); experiment: BSA tolerance to DMSO, Trp emission fluorescence
Chain of bovine serum albumin (BSA) (P02769 25-607): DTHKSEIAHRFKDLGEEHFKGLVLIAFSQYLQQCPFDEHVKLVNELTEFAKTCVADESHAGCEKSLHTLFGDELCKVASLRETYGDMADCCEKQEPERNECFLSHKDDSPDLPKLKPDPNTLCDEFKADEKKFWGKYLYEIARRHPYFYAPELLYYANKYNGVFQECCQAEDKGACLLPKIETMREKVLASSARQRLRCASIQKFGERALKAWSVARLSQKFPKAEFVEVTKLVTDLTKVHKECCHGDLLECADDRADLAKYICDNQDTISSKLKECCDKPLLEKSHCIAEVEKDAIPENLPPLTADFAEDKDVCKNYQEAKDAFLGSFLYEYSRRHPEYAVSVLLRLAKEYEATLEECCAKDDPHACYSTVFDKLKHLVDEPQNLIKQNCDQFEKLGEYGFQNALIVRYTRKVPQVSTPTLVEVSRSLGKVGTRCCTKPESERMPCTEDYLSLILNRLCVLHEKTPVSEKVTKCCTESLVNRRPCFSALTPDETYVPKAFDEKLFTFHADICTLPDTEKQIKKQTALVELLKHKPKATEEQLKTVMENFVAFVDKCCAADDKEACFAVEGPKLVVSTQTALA

[4] = Equilibration of the thiol-disulfide DCL of building blocks 1-4 followed by HPLC-MS
Protocol: DMSO percentage is 2.5% v/v. […] DCLs were analyzed by HPLC-MS until equilibration without stirring at 6 °C.
Control DCL. […] DMSO percentage is 2.5% v/v. Regarding Secox catalyzed DCL, different stocks of Secox were carried out in order to study the percentages of Secox. […] The DCLs were prepared at 6 °C without stirring and analyzed in several hours until the complete stabilization.

[5] = Slow DCL system of building blocks 5-8, equilibration by HPLC-MS; settings: slow DCL 5-8; 5% mol (18.3 μM); 20% (v/v) DMSO, pH 7.8, 6 °C; control 192 h
Protocol: To broaden the scope of selenocystine we tested this catalyst in a slow disulfide-exchange system. The DCL comprised 4 building blocks (5–8)[37], three of them being aliphatic thiols with pKa values around 9 to slow down the exchange reaction (Fig. 7a). Due to solubility issues, a 20% (v/v) DMSO was added and the reaction mixture was diluted. […] The different oligomers were identified by HPLC-MS (Supplementary Figs. 21–30).
Control DCL. […] The DCLs were analyzed until stabilization.

[6] = Spermine-templated DCL of building blocks 2 and 3; settings: two building blocks DCL with spermine; 5% (mol); control 96 h
Protocol: (§1) Building blocks 2 and 3 equipped with carboxylate moieties to establish interactions with the protonated amine groups of the spermine were allowed to equilibrate at pH 7.8 and 6 °C (Fig. 8a). As expected in our control experiment, the major component in the absence of spermine was the linear tetramer (2)2(3)2. After the addition of spermine, the linear tetramer “decomposed” in order to form mainly the cyclic tetramer of (2)4, and the (3)2 dimer (Fig. 8a). As it was reported, several studies determined that the spermine was threaded through the macrocycle fixing the configuration to a highly symmetric stereoisomer of (2)4[36]. […] The precise composition of the DCL (with and without spermine), was assessed by measuring the relative peak area (RPA). Indeed, the normalized change of RPA was used to quantify the spermine influence in the outcome (Supplementary Fig. 42)[46]. The same template (spermine) was tested in our reference DCL of four building blocks (1–4) in the absence and presence of Secox (Fig. 8b). […] Additionally, two different templates were tested to confirm the absence of conflict between selenocystine and the templating effect. Spermidine and NADPH were introduced in our 4 building blocks DCL (1–4) in the absence and presence of Secox, leading to the amplification of different species and getting the same results as the non-catalyzed DCLs (Supplementary Figs. 44, 45, Supplementary Tables 7–10, and Supplementary Methods).
The DCL was stabilized at 96 h. […] The mixture was stabilized after 24 h. […] The DCL was stabilized at 96 h. […] The DCL was analyzed in 96 h after equilibration. DCLs were performed without stirring at 6 °C and analyzed by HPLC-MS.

[7] = Spermine-templated DCL of building blocks 1-4; settings: four building blocks DCL with spermine; 5% mol
Protocol: as §1
The mixture was stabilized in 96 h. […] The mixture was stabilized after 24 h. […] It was stabilized in 24 h. […] DCL was equilibrated in 96 h. DCLs were performed without stirring at 6 °C and analyzed by HPLC-MS.

[8] = target: T1, glucose oxidase (GOx); experiment: GOx tolerance to Secox, Trp emission fluorescence; design: purchased Sigma Aldrich
[9] = target: T2, scrambled RNase A (Bos taurus, UniProt P61823); experiment: Folding of scrambled RNase A at pH 7.8 (cCMP hydrolysis); settings: for V0: Secox / GSH 1 mM/5 mM
T2 sequence (P61823 27-150): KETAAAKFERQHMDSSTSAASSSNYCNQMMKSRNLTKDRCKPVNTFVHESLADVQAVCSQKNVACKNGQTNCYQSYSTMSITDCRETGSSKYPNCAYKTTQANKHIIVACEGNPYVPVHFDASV

[10] = target: T2, scrambled RNase A; experiment: Folding of scrambled RNase A at pH 5.4 (cCMP hydrolysis); settings: in <2 h
[11] = 10 % v/v DMSO, Supplementary Figure 48 b
[12] = 20 % v/v DMSO, Supplementary Figure 48 b
[13] = 60 % v/v DMSO, Supplementary Figure 48 b

T1 sequence (P13006 17-605): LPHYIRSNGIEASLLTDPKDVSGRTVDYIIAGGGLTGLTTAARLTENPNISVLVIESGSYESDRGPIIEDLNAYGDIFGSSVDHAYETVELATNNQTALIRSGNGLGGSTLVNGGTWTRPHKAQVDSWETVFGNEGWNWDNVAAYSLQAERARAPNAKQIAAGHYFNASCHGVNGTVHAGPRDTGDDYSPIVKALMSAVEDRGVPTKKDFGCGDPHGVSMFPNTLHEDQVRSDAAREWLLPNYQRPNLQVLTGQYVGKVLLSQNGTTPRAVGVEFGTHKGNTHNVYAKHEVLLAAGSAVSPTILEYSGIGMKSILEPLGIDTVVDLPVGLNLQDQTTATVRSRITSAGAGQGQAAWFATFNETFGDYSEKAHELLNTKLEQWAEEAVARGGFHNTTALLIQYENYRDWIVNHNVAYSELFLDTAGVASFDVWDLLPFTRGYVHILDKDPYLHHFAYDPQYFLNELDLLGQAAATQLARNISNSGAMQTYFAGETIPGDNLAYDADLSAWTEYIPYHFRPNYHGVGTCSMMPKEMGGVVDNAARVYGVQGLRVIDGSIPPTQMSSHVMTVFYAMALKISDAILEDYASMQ

SMILES: C[S+](C)[O-] [DMSO]
- DMSO concentration tolerated by GOx (no shift of Trp emission maximum) [1]: up to 20%
- Fluorescence Emission (Average Value) ([1]; 1 % v/v DMSO): 4921084
- Wavelenght (nm) of Trp emission maximum ([1]; 1 % v/v DMSO): 329 nm
- Fluorescence Emission (Average Value) ([1]; 2.5 % v/v DMSO): 5438068
- Wavelenght (nm) of Trp emission maximum ([1]; 2.5 % v/v DMSO): 329 nm
- Wavelenght (nm) of Trp emission maximum ([1]; 2.5 % v/v DMSO, Supplementary Figure 48 b): 338 nm
- Fluorescence Emission (Average Value) ([1]; 5 % v/v DMSO): 4507601
- Wavelenght (nm) of Trp emission maximum ([1]; 5 % v/v DMSO): 329 nm
- Wavelenght (nm) of Trp emission maximum ([1]; 5 % v/v DMSO, Supplementary Figure 48 b): 337 nm
- Fluorescence Emission (Average Value) ([1]; 7.5 % v/v DMSO): 4900904
- Wavelenght (nm) of Trp emission maximum ([1]; 7.5 % v/v DMSO): 329 nm
- Fluorescence Emission (Average Value) ([1]; 10 % v/v DMSO): 4964780
- Wavelenght (nm) of Trp emission maximum ([1]; 10 % v/v DMSO): 329 nm
- Fluorescence Emission (at maximum) [1, 11]: 7117020
- Wavelenght (nm) of Trp emission maximum [1, 11]: 336 nm
- Fluorescence Emission (Average Value) ([1]; 20 % v/v DMSO): 5321027
- Wavelenght (nm) of Trp emission maximum ([1]; 20 % v/v DMSO): 329 nm
- Fluorescence Emission (at maximum) [1, 12]: 7139475
- Wavelenght (nm) of Trp emission maximum [1, 12]: 335 nm
- Fluorescence Emission (Average Value) ([1]; 40 % v/v DMSO): 6356217
- Wavelenght (nm) of Trp emission maximum ([1]; 40 % v/v DMSO): 336 nm
- Fluorescence Emission (Average Value) ([1]; 50 % v/v DMSO): 10423932
- Wavelenght (nm) of Trp emission maximum ([1]; 50 % v/v DMSO): 337 nm
- Fluorescence Emission (Average Value) ([1]; 60 % v/v DMSO): 13490702
- Wavelenght (nm) of Trp emission maximum ([1]; 60 % v/v DMSO): 338 nm
- Fluorescence Emission (at maximum) [1, 13]: 8900408
- Wavelenght (nm) of Trp emission maximum [1, 13]: 327 nm
- Fluorescence Emission (Average Value) ([1]; 70 % v/v DMSO): 30698968
- Wavelenght (nm) of Trp emission maximum ([1]; 70 % v/v DMSO): 339 nm
- Fluorescence Emission (Average Value) ([1]; 80 % v/v DMSO): 28715570
- Wavelenght (nm) of Trp emission maximum ([1]; 80 % v/v DMSO): 344 nm
- Wavelenght (nm) of Trp emission maximum ([1]; 97 % v/v DMSO): 349 nm
- Fluorescence Emission (at maximum) ([1]; 97 % v/v DMSO, Supplementary Figure 48 b): 24089455
- time until total completion of homodimerization ([2]; 20% (v/v)): 4 days
- Kobs ([2]; 20% (v/v) DMSO, 0% Secox): 0.068 ± 0.001 M⁻¹ s⁻¹
- DMSO concentration tolerated by BSA [3]: up to 10%

SMILES: N[C@@H](C[Se][Se]C[C@H](N)C(=O)O)C(=O)O [Secox, selenocystine]
- DCL equilibration time ([4]; 190 μM as fifth building block, Tris 20 mM pH 7.8, 6 °C, control 4 days): 24 h
- DCL equilibration time ([4]; 1% mol (5.7 μM), pH 7.8, 6 °C, control 96 h): 72 h
- DCL equilibration time ([4]; 2.5% mol (14.25 μM), pH 7.8, 6 °C, control 96 h): 48 h
- DCL equilibration time ([4]; 5% mol (28.5 μM), pH 7.8, 6 °C, control 96 h): 24 h
- DCL equilibration time ([4]; 10% mol (57 μM), pH 7.8, 6 °C, control 96 h): 24 h
- DCL equilibration time [5]: 60 h
- DCL equilibration time [6]: 24 h
- DCL equilibration time [7]: 24 h
- Kobs ([2]; 1% (mol), 2.5% (v/v) DMSO): 0.091 ± 0.002 M⁻¹ s⁻¹
- time until total completion of homodimerization ([2]; 1% mol): 3 days
- time until total completion of homodimerization ([2]; 2.5% mol): 2 days
- Kobs ([2]; 5% (mol) catalyst, 2.5% (v/v) DMSO, uncatalyzed 0.014 ± 0.001): 0.259 ± 0.009 M⁻¹ s⁻¹
- acceleration over the uncatalyzed reaction ([2]; 5% Secox): 18 fold
- time until total completion of homodimerization ([2]; 5% mol): 0.917 days and 1 days
- time until total completion of homodimerization ([2]; 10% mol): 0.75 days
- Wavelenght (nm) of GOx Trp fluorescence emission (Supplementary Figure 47 b) ([8]; 1 % Secox): 329 nm
- Wavelenght (nm) of GOx Trp fluorescence emission (Supplementary Figure 47 b) ([8]; 2.5 % Secox): 329 nm
- Wavelenght (nm) of GOx Trp fluorescence emission (Supplementary Figure 47 b) ([8]; 5% Secox): 329 nm
- Wavelenght (nm) of GOx Trp fluorescence emission (Supplementary Figure 47 b) ([8]; 7.5 % Secox): 329 nm
- Wavelenght (nm) of GOx Trp fluorescence emission (Supplementary Figure 47 b) ([8]; 10 % Secox): 329 nm
- Wavelenght (nm) of GOx Trp fluorescence emission (Supplementary Figure 47 b) ([8]; 30 % Secox): 329 nm
- Wavelenght (nm) of GOx Trp fluorescence emission (Supplementary Figure 47 b) ([8]; 50 % Secox): 329 nm
- Wavelenght (nm) of GOx Trp fluorescence emission (Supplementary Figure 47 b) ([8]; 100 % Secox): 329 nm
- effect on GOx stability (Trp emission maximum) ([8]; whole range of concentrations measured, up to 100 % mol): No shift was observed
- effect on scrambled RNase A folding ([9]; 20 mM Secox / 100 mM GSH, pH 7.8): partial inactivation of the protein
- V0 ([9]; 33 min): 73.3333 min⁻¹
- V0 ([9]; 65 min): 91.6667 min⁻¹
- V0 ([9]; 95 min): 91.6667 min⁻¹
- V0 ([9]; 123 min): 100 min⁻¹
- V0 ([9]; 188 min): 101.667 min⁻¹
- V0 ([9]; 232 min): 98.3333 min⁻¹
- V0 ([9]; 356 min): 105 min⁻¹
- V0 ([9]; 1440 min): 101.667 min⁻¹
- yield of the correctly folded enzyme ([9]; pH 7.8, 1 mM Secox/5 mM GSH, first 65 min): 92%
- increase of refolding rate by replacing GSSG with Secox ([9]; scrambled RNase A): five times
- yield of native RNase A [10]: 75%
